The structures appear in SMILES notation. Counter-ions that a name gives are not always drawn.

Assay [1] has as its system SNU-484. The experiment in a line: MTT assay, irinotecan with or without hydrochloride compound of Formula 1. The format is cell-based. As to conditions: Homo sapiens, 120 h, 5 days, irinotecan alone or with 1 μM hydrochloride compound of Formula 1. On the technique in general: Formazan colour is commonly taken as a measure of viable cells.
The subject of assay [2] is SNU-216. Described as above. The format is cell-based. To be noted: Homo sapiens, 120 h, 5 days, irinotecan alone or with 1 μM hydrochloride compound of Formula 1.
In assay [3] the test system is SNU-668. Described as above. The format is cell-based. To be noted: Homo sapiens, SNU668, 120 h, 5 days, irinotecan alone or with 1 μM hydrochloride compound of Formula 1.
Assay [4] deals with AGS. Described as above. The format is cell-based. To be noted: Homo sapiens, 120 h, 5 days, irinotecan alone or with 1 μM hydrochloride compound of Formula 1.
Assay [5] relates to SNU-638. The description is as above. The format is cell-based. As to conditions: Homo sapiens, 120 h, 5 days, irinotecan alone or with 1 μM hydrochloride compound of Formula 1.
The subject of assay [6] is five human-derived gastric cancer cell lines (AGS, SNU-668, SNU-216, SNU-484, and SNU-638). The experiment in a line: MTT assay, irinotecan experiment, summary over the five cell lines. To be noted: 5 days, irinotecan with or without 1 μM hydrochloride compound of Formula 1.
In assay [7] the test system is AGS. The experiment in a line: MTT assay, oxaliplatin with or without hydrochloride compound of Formula 1. In kind it is cell-based, human. As to conditions: 5 days, oxaliplatin alone or with 1 μM hydrochloride compound of Formula 1. An excerpt: (§1) Oxaliplatin (M.W. 397.29) was obtained from Sigma Aldrich.
Assay [8] relates to SNU-484. The description is as above. The format is cell-based, human. As to conditions: 5 days, oxaliplatin alone or with 1 μM hydrochloride compound of Formula 1.
Excerpt: as §1

Assay [9] deals with SNU-638. The description is as above. To be noted: 5 days, oxaliplatin alone or with 1 μM hydrochloride compound of Formula 1. The format is cell-based, human.
Excerpt: as §1

The subject of assay [10] is SNU-668. The assay is described as above. In kind it is cell-based, human. To be noted: 5 days, oxaliplatin alone or with 1 μM hydrochloride compound of Formula 1.
Excerpt: as §1

Assay [11] concerns five human-derived gastric cancer cell lines (AGS, SNU-668, SNU-216, SNU-484, and SNU-638). The experiment in a line: MTT assay, oxaliplatin experiment, summary over the cell lines. In kind it is cell-based. As to conditions: 5 days, oxaliplatin with or without 1 μM hydrochloride compound of Formula 1.
Excerpt: as §1

Assay [12] relates to MKN45 human gastric cancer xenograft. The experiment in a line: subcutaneous MKN45 human gastric cancer xenograft model, tumor volume. To be noted: for Tumor volume (Mean ± SEM): Formula 1 HCl 2 mg/kg p.o. QD, irinotecan 5 mg/kg i.v. QW. On the technique in general: In xenograft studies the graft and the host belong to different species.

In the case of `CCc1c2c(nc3ccc(OC(=O)N4CCC(N5CCCCC5)CC4)cc13)-c1cc3c(c(=O)n1C2)COC(=O)[C@]3(O)CC` [Comparative Example 1, Irinotecan hydrochloride], the IC50 in assay [1] is 789 nM; in [2], 2010 nM; in assay [3] it was 4.3 µM; in assay [4], 367 nM; in [5], 657 nM. In assay [6], the “cell death (cell viability, FIG. 1)” value was “exhibited an effect of cell death”.

With `O=C1[O][Pt-2]2([NH2+]C3CCCC[C@H]3[NH2+]2)[O]C1=O` (stereo partly drawn) [Comparative Example 2, Oxaliplatin], the concentration for half-maximal inhibition (IC50) was 2380 nM in assay [7], 10.4 µM in [8], 30.3 µM in assay [9] and 11.2 µM in assay [10]. Further, the “cell death (cell viability, FIG. 2)” value in [11] was “exhibited an effect of cell death”.

In the case of `O=C(c1cc(Cc2n[nH]c(=O)c3ccccc23)ccc1F)N1CC(CNC2CC2)C1` [Comparative Example 4, 4-[3-(3-[(cyclopropylamino)methyl]azetidine-1-carbonyl)-4-fluorobenzyl]phthalazine-1 (2H)-on], the “Tumor volume (Mean ± SEM)” value worked out at 156.60 mm^3 in assay [12] (0 day (grouping date), MKN45 xenograft mice); 190.75 mm^3 in [12] (3rd day, MKN45 xenograft mice); 272.69 mm^3 in assay [12] (7th day, MKN45 xenograft mice); 359.75 mm^3 in assay [12] (10th day, MKN45 xenograft mice); 461.91 mm^3 in assay [12] (14th day, MKN45 xenograft mice); 588.26 mm^3 in assay [12] (17th day, MKN45 xenograft mice). For the same compound, the “Tumor volume (Mean ± SEM)” value in [12] (21st day, MKN45 xenograft mice) is recorded as 727.36 mm^3. Also, in assay [12] (21st day, Formula 1 HCl 2 mg/kg QD, irinotecan 5 mg/kg QW), the “Tumor growth inhibition (TGI)” value turned out to be 19.69%. Also, in assay [12] (21st day, MKN45 xenograft mice, Formula 1 HCl 2 mg/kg QD, irinotecan 5 mg/kg QW), the “Tumor size on 21st day (Mean ± SEM)” value is given as 727.36 ± 69.46 mm^3. In assay [12] (21st day, treatment vs vehicle control tumor volume), this compound yielded a T/C of 80.31%.

One may read the IC50 as the concentration needed to halve the response being measured. A higher IC50 goes with weaker potency in that assay. The term T/C denotes the result in the treated group divided by that in the control group, in per cent.

These data come from patent publication US20250120970A1, “PHARMACEUTICAL COMPOSITION INCLUDING PHTHALAZINONE DERIVATIVE FOR CO-ADMINISTRATION WITH ANTICANCER DRUG” (priority 2022, published 2025).
